ChEMBL document CHEMBL5325488, “Discovery of SMD-3040 as a Potent and Selective SMARCA2 PROTAC Degrader with Strong in vivo Antitumor Activity” (J Med Chem, 2023)

Experiments:
[1] = tested on: NCI-H838; assay: Antiproliferative activity against SMARCA4-deficient human NCI-H838 cells assessed as cell growth inhibition by measuring maximal efficacy measured after 7 days by WST-8 assay relative to control; assay type: functional; details: time 7 day
[2] = biological target: T1, von Hippel-Lindau disease tumor suppressor/SWI/SNF-related matrix-associated actin-dependent regulator of chromatin subfamily A member 4 (Homo sapiens, UniProt P51532+P40337); assay: PROTAC activity at VHL/C-terminal HiBiT fused SMARCA4 in human HeLa cells assessed as induction of SMARCA4 degradation incubated for 24 hrs by Nano-Glo HiBiT analysis; assay type: cell-based
Target sequence in this assay (P51532 whole entry, the tested form may be a part): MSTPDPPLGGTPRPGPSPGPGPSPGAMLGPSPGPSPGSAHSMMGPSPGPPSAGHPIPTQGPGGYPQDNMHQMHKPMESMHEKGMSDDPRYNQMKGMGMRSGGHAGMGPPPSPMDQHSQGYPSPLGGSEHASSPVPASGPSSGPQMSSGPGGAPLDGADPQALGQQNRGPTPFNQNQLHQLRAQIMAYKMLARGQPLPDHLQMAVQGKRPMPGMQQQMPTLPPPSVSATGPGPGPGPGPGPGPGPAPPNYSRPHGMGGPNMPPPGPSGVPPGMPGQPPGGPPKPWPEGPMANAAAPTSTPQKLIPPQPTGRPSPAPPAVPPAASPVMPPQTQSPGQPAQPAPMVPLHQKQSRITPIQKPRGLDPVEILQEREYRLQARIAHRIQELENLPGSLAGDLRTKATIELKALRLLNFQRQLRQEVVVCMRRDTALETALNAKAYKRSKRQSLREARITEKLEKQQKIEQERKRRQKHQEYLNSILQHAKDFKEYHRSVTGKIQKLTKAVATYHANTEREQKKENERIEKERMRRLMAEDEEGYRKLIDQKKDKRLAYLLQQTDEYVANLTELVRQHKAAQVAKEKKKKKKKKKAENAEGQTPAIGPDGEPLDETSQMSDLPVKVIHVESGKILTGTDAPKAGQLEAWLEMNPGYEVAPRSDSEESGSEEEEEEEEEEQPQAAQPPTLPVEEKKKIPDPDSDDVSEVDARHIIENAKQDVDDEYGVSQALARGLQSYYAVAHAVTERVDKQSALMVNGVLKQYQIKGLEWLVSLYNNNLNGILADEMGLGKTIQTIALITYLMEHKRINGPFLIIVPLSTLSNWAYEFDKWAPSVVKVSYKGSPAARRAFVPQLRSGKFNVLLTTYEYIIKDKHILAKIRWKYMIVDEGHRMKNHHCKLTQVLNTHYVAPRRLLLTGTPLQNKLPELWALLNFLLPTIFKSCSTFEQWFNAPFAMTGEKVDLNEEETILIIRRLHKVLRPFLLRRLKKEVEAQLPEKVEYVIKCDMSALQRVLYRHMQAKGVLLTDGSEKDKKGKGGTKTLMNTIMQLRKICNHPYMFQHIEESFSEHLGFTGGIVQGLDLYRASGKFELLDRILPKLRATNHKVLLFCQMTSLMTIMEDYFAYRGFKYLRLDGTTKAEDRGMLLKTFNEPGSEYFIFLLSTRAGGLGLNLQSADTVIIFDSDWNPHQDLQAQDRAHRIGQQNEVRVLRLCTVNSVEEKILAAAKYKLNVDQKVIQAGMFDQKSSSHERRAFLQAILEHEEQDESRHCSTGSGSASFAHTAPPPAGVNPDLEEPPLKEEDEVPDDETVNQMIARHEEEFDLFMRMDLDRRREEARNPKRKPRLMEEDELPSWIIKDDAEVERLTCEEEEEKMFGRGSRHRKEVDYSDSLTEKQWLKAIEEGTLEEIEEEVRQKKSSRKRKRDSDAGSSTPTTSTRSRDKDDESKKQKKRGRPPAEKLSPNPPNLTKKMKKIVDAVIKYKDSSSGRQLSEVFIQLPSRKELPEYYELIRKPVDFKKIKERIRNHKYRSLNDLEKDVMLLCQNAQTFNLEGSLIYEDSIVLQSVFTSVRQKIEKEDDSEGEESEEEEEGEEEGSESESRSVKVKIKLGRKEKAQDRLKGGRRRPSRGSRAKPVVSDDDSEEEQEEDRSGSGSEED
Target sequence in this assay (P40337 whole entry, the tested form may be a part): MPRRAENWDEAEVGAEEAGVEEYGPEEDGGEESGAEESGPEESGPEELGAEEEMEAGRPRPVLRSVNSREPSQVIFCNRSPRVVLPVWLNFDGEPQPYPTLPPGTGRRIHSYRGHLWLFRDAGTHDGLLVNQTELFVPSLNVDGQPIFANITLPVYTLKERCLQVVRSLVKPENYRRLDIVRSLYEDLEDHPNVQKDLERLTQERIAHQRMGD

[3] = tested on: NCI-H1299; assay: Antiproliferative activity against SMARCA4-deficient human NCI-H1299 cells assessed as cell growth inhibition by measuring maximal efficacy measured after 7 days by WST-8 assay relative to control; assay type: functional; details: time 7 day
[4] = biological target: T2, von Hippel-Lindau disease tumor suppressor/SWI/SNF-related matrix-associated actin-dependent regulator of chromatin subfamily A member 2 (Homo sapiens, UniProt P51531+P40337); assay: PROTAC activity at VHL/C-terminal HiBiT fused SMARCA2 in human HeLa cells assessed as induction of SMARCA2 degradation by measuring maximal efficacy incubated for 24 hrs by Nano-Glo HiBiT analysis relative to control; assay type: cell-based
Target sequence in this assay (P40337 whole entry, looked up, the tested form may be a part): as the sequence (P40337 whole entry, the tested form may be a part) above
Target sequence in this assay (P51531 whole entry, looked up, the tested form may be a part): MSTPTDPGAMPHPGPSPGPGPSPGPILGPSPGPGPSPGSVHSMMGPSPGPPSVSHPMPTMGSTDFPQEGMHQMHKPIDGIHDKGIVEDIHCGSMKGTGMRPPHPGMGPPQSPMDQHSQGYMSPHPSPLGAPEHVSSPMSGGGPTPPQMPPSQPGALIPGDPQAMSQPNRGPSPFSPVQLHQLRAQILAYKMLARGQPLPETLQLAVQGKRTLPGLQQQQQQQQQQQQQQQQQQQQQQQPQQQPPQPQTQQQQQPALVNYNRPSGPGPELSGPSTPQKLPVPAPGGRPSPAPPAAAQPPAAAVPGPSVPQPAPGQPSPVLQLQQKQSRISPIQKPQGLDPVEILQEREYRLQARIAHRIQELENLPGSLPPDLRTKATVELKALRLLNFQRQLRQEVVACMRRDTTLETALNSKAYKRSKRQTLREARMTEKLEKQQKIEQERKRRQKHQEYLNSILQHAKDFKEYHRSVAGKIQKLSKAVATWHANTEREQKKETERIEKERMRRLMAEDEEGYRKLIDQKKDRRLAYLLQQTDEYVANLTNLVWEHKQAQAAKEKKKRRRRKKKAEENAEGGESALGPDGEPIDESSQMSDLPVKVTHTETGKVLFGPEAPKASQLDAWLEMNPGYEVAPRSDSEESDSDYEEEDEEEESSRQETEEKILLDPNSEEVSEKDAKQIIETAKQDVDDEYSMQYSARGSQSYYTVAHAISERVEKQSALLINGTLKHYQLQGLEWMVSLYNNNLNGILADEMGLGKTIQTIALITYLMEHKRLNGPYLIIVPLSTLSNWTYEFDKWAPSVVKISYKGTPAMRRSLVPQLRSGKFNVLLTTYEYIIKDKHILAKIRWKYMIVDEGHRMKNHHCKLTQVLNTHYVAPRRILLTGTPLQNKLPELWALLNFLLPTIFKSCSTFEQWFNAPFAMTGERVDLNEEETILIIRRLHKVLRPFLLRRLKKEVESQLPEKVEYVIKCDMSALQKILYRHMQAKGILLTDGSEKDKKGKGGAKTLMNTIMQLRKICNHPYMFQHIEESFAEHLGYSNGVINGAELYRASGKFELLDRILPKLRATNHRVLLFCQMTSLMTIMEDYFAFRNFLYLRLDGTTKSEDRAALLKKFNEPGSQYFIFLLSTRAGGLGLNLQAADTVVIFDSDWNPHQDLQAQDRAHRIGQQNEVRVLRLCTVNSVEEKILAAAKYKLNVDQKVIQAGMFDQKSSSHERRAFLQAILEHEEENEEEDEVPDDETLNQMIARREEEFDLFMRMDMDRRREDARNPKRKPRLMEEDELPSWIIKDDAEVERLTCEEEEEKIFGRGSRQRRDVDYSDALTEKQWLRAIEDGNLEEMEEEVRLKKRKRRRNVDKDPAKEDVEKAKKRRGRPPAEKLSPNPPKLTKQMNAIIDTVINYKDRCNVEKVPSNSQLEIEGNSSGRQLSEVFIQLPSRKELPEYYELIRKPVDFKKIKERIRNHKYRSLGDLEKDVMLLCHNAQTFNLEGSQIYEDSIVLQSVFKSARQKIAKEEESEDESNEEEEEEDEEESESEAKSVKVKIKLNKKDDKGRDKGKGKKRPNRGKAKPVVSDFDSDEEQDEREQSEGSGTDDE

[5] = tested on: SK-MEL-5; assay: Antiproliferative activity against SMARCA4-deficient human SK-MEL-5 cells assessed as cell growth inhibition by measuring maximal efficacy measured after 7 days by WST-8 assay relative to control; assay type: functional; details: time 7 day
[6] = tested on: NCI-H1944; assay: Antiproliferative activity against SMARCA4-deficient human NCI-H1944 cells assessed as cell growth inhibition measured after 7 days by WST-8 assay; assay type: functional; details: NCI-H1944, 168 h, time 7 day
[7] = tested on: NCI-H1975; assay: Antiproliferative activity against human NCI-H1975 cells expressing wild-type SMARCA2 assessed as cell growth inhibition by measuring maximal efficacy measured after 7 days by WST-8 assay relative to control; assay type: functional; details: time 7 day
[8] = tested on: SK-MEL-5; assay: Antiproliferative activity against SMARCA4-deficient human SK-MEL-5 cells assessed as cell growth inhibition measured after 7 days by WST-8 assay; assay type: functional; details: SK-MEL-5, 168 h, time 7 day
[9] = Antiproliferative activity against SMARCA4-deficient human NCI-H1568 cells assessed as cell growth inhibition measured after 7 days by WST-8 assay; assay type: functional; details: NCI-H1568, 168 h, time 7 day
[10] = tested on: NCI-H1299; assay: Antiproliferative activity against SMARCA4-deficient human NCI-H1299 cells assessed as cell growth inhibition measured after 7 days by WST-8 assay; assay type: functional; details: NCI-H1299, 168 h, time 7 day
[11] = tested on: A549; assay: Antiproliferative activity against SMARCA4-deficient human A549 cells assessed as cell growth inhibition measured after 7 days by WST-8 assay; assay type: functional; details: A549, 168 h, time 7 day
[12] = tested on: NCI-H647; assay: Antiproliferative activity against human NCI-H647 cells expressing wild-type SMARCA2 assessed as cell growth inhibition measured after 7 days by WST-8 assay; assay type: functional; details: NCI-H647, 168 h, time 7 day
[13] = tested on: NCI-H1793; assay: Antiproliferative activity against SMARCA4-deficient human NCI-H1793 cells assessed as cell growth inhibition measured after 7 days by WST-8 assay; assay type: functional; details: NCI-H1793, 168 h, time 7 day
[14] = tested on: NCI-H1693; assay: Antiproliferative activity against SMARCA4-deficient human NCI-H1693 cells assessed as cell growth inhibition measured after 7 days by WST-8 assay; assay type: functional; details: NCI-H1693, 168 h, time 7 day
[15] = biological target: T2, von Hippel-Lindau disease tumor suppressor/SWI/SNF-related matrix-associated actin-dependent regulator of chromatin subfamily A member 2; assay: PROTAC activity at VHL/C-terminal HiBiT fused SMARCA2 in human HeLa cells assessed as induction of SMARCA2 degradation incubated for 24 hrs by Nano-Glo HiBiT analysis; assay type: cell-based
Target sequence in this assay (P51531 whole entry, the tested form may be a part): as the sequence (P51531 whole entry, looked up, the tested form may be a part) above
Target sequence in this assay (P40337 whole entry, the tested form may be a part): as the sequence (P40337 whole entry, the tested form may be a part) above

[16] = tested on: NCI-H1793; assay: Antiproliferative activity against SMARCA4-deficient human NCI-H1793 cells assessed as cell growth inhibition by measuring maximal efficacy measured after 7 days by WST-8 assay relative to control; assay type: functional; details: time 7 day
[17] = tested on: NCI-H838; assay: Antiproliferative activity against SMARCA4-deficient human NCI-H838 cells assessed as cell growth inhibition measured after 7 days by WST-8 assay; assay type: functional; details: NCI-H838, 168 h, time 7 day
[18] = biological target: T1, von Hippel-Lindau disease tumor suppressor/SWI/SNF-related matrix-associated actin-dependent regulator of chromatin subfamily A member 4; assay: PROTAC activity at VHL/C-terminal HiBiT fused SMARCA4 in human HeLa cells assessed as induction of SMARCA4 degradation by measuring maximal efficacy incubated for 24 hrs by Nano-Glo HiBiT analysis relative to control; assay type: cell-based
Target sequence in this assay (P40337 whole entry, looked up, the tested form may be a part): as the sequence (P40337 whole entry, the tested form may be a part) above
Target sequence in this assay (P51532 whole entry, looked up, the tested form may be a part): as the sequence (P51532 whole entry, the tested form may be a part) above

[19] = tested on: SK-MEL-28; assay: Antiproliferative activity against human SK-MEL-28 cells expressing wild-type SMARCA2 assessed as cell growth inhibition by measuring maximal efficacy measured after 7 days by WST-8 assay relative to control; assay type: functional; details: time 7 day
[20] = tested on: NCI-H1944; assay: Antiproliferative activity against SMARCA4-deficient human NCI-H1944 cells assessed as cell growth inhibition by measuring maximal efficacy measured after 7 days by WST-8 assay relative to control; assay type: functional; details: time 7 day
[21] = tested on: A549; assay: Antiproliferative activity against SMARCA4-deficient human A549 cells assessed as cell growth inhibition by measuring maximal efficacy measured after 7 days by WST-8 assay relative to control; assay type: functional; details: time 7 day
[22] = tested on: NCI-H1792; assay: Antiproliferative activity against human NCI-H1792 cells expressing wild-type SMARCA2 assessed as cell growth inhibition measured after 7 days by WST-8 assay; assay type: functional; details: NCI-H1792, 168 h, time 7 day
[23] = tested on: NCI-H1792; assay: Antiproliferative activity against human NCI-H1792 cells expressing wild-type SMARCA2 assessed as cell growth inhibition by measuring maximal efficacy measured after 7 days by WST-8 assay relative to control; assay type: functional; details: time 7 day
[24] = tested on: NCI-H1975; assay: Antiproliferative activity against human NCI-H1975 cells expressing wild-type SMARCA2 assessed as cell growth inhibition measured after 7 days by WST-8 assay; assay type: functional; details: NCI-H1975, 168 h, time 7 day
[25] = tested on: NCI-H647; assay: Antiproliferative activity against human NCI-H647 cells expressing wild-type SMARCA2 assessed as cell growth inhibition by measuring maximal efficacy measured after 7 days by WST-8 assay relative to control; assay type: functional; details: time 7 day
[26] = tested on: NCI-H1693; assay: Antiproliferative activity against SMARCA4-deficient human NCI-H1693 cells assessed as cell growth inhibition by measuring maximal efficacy measured after 7 days by WST-8 assay relative to control; assay type: functional; details: time 7 day
[27] = Antiproliferative activity against SMARCA4-deficient human NCI-H1568 cells assessed as cell growth inhibition by measuring maximal efficacy measured after 7 days by WST-8 assay relative to control; assay type: functional; details: time 7 day
[28] = tested on: SK-MEL-28; assay: Antiproliferative activity against human SK-MEL-28 cells expressing wild-type SMARCA2 assessed as cell growth inhibition measured after 7 days by WST-8 assay; assay type: functional; details: SK-MEL-28, 168 h, time 7 day
[29] = biological target: T2, von Hippel-Lindau disease tumor suppressor/SWI/SNF-related matrix-associated actin-dependent regulator of chromatin subfamily A member 2; assay: PROTAC activity at VHL/SMARCA2 in human MV4-11 cells assessed as induction of SMARCA2 degradation by measuring maximal efficacy incubated for 18 hrs by Western blotting analysis relative to control; assay type: cell-based
Target sequence in this assay (P40337 whole entry, looked up, the tested form may be a part): as the sequence (P40337 whole entry, the tested form may be a part) above
Target sequence in this assay (P51531 whole entry, looked up, the tested form may be a part): as the sequence (P51531 whole entry, looked up, the tested form may be a part) above

[30] = biological target: T1, von Hippel-Lindau disease tumor suppressor/SWI/SNF-related matrix-associated actin-dependent regulator of chromatin subfamily A member 4; assay: PROTAC activity at VHL/SMARCA4 in human MV4-11 cells assessed as induction of […] degradation by measuring maximal efficacy incubated for 18 hrs by Western blotting analysis relative to control; assay type: cell-based
Target sequence in this assay (P40337 whole entry, looked up, the tested form may be a part): as the sequence (P40337 whole entry, the tested form may be a part) above
Target sequence in this assay (P51532 whole entry, looked up, the tested form may be a part): as the sequence (P51532 whole entry, the tested form may be a part) above

[31] = biological target: SWI/SNF-related matrix-associated actin-dependent regulator of chromatin subfamily A member 4 (Homo sapiens, UniProt P51532); assay: Binding affinity to SMARCA4 (unknown origin)
Sequence of SWI/SNF-related matrix-associated actin-dependent regulator of chromatin subfamily A member 4 (P51532 whole entry): as the sequence (P51532 whole entry, the tested form may be a part) above

Cc1ncsc1-c1ccc([C@H](C)NC(=O)[C@@H]2C[C@@H](O)CN2C(=O)[C@@H](NC(=O)CCCCCCCCCn2cc(-c3cc(-c4ccccc4O)nnc3N)cn2)C(C)(C)C)cc1
Imax [1]: 91%
DC50 [2]: 8 nM
Imax [3]: 81%
Emax [4]: 93%
Imax [5]: 95%
GI50 [6]: 4.8 nM
Imax [7]: 63%
GI50 [8]: 2.5 nM
GI50 [9]: 2.5 nM
GI50 [10]: 100 nM
GI50 [11]: 16 nM
GI50 [12]: 76 nM
GI50 [13]: 5 nM
GI50 [14]: 3.3 nM
DC50 [15]: 2 nM
Imax [16]: 72%
GI50 [17]: 48 nM
Emax [18]: 94%
Imax [19]: 90%
Imax [20]: 87%
Imax [21]: 53%
GI50 [22]: 60 nM
Imax [23]: 86%
GI50 [24]: 38 nM
Imax [25]: 77%
Imax [26]: 81%
Imax [27]: 82%
GI50 [28]: 32 nM

Cc1ncsc1-c1ccc(CNC(=O)[C@@H]2C[C@@H](O)CN2C(=O)[C@@H](NC(=O)C2(F)CC2)C(C)(C)C)c(OCCOc2ccc(CN3CCN(c4cc(-c5ccccc5O)nnc4N)CC3)cc2)c1
Emax [29]: > 95%
Emax [30]: > 95%

CN1CCN(/C=C2\CCn3c2nc(=O)c2c(Cl)cccc23)CC1
Kd [31]: 417 nM
